# Laboratory results reported in patent publication US4165379A, “N-acetyl thienamycin” (Merck & Co., Inc., priority 1977, dated 1979).
# Read-outs that look alike come from different tables or passages of the source.
# Columns and labels:
# Staph aureus 2949 = assay: Efficacy studies (mice), intraperitoneal infection (Table 4); assay type: in vivo, CD-1 female mice infected with Staph aureus; conditions: Staphylococcus aureus, 2949, ip, 168 h; i.p. × 2, at time of infection and again 6 hours later; challenge 13 LD50; survival seventh day after infection
# Procedure: (§1) In determining the in vivo activity, N-acetyl thienamycin is dissolved in and diluted with 0.01 M sodium phosphate, pH 7.0, to provide five fourfold concentrations of drug for testing. Female white Swiss mice, averaging about 21 g. in weight, were infected intraperitoneally with the test organism suspended in broth. The numbers of organisms injected were determined by standard plate-count techniques. At the time of infection, and again 6 hours later, certain of the mice were treated intraperitoneally with the antibiotic. Five mice were used for each concentration of drug tested. Controls of five mice for each of several dilutions of the infecting culture were included in each test in order to calculate the numbers of organisms that were lethal to 50% of the infected, untreated mice (LD50). This calculation was made using survival data of the seventh day after infection, at which time the amount of drug that should protect 50% of the infected mice (ED50) also was calculated.
# Klebsiella pneumoniae = assay: Bauer-Kirby disc diffusion antibiotic spectrum (Table 3); assay type: cell-based; conditions: read-out: diameter of the zone of inhibition; for zone of inhibition at 10.35 µg/disc: Klebsiella pneumoniae, 10.35 μg/disc, prepared by acetylating thienamycin; for zone of inhibition at 9.85 µg/disc: 9.85 μg/disc, prepared by fermenting Streptomyces cattleya
# Excerpt: (§2) The test employs the Bauer-Kirby disc diffusion method modified only in respect to the 2 mm. agar depth employed here.
# Proteus morganii = assay: as above; assay type: cell-based; conditions: MB2833, resistance P,C (penicillins, cephalosporins), read-out: diameter of the zone of inhibition
# Excerpt: as §2
# Staphylococcus aureus = assay: as above; assay type: cell-based; conditions: for diameter of the zone of inhibition: MB2314, resistance P (penicillins)
# Excerpt: as §2
# Enterobacter cloacae = assay: as above; assay type: cell-based; conditions: read-out: diameter of the zone of inhibition; for zone of inhibition at 10.35 µg/disc: Enterobacter cloacae, 10.35 μg/disc, prepared by acetylating thienamycin; for zone of inhibition at 9.85 µg/disc: 9.85 μg/disc, prepared by fermenting Streptomyces cattleya
# Excerpt: as §2
# Serratia = assay: as above; assay type: cell-based; conditions: MB2840, resistance P,C (penicillins, cephalosporins), read-out: diameter of the zone of inhibition
# Excerpt: as §2
# Bacillus subtilis = assay: as above; assay type: cell-based; conditions: MB 964, ATCC 6633, read-out: diameter of the zone of inhibition
# Excerpt: as §2
# Pseudomonas aeruginosa = assay: as above; assay type: cell-based; conditions: read-out: diameter of the zone of inhibition; for zone of inhibition at 9.85 µg/disc: 9.85 μg/disc, prepared by fermenting Streptomyces cattleya; for zone of inhibition at 10.35 µg/disc: Pseudomonas aeruginosa, 10.35 μg/disc, prepared by acetylating thienamycin
# Excerpt: as §2
# Proteus mirabilis = assay: as above; assay type: cell-based; conditions: MB2830, resistance P,C (penicillins, cephalosporins), read-out: diameter of the zone of inhibition
# Excerpt: as §2
# Escherichia coli = assay: as above; assay type: cell-based; conditions: read-out: diameter of the zone of inhibition; for zone of inhibition at 10.35 µg/disc: Escherichia coli, 10.35 μg/disc, prepared by acetylating thienamycin; for zone of inhibition at 9.85 µg/disc: 9.85 μg/disc, prepared by fermenting Streptomyces cattleya
# Excerpt: as §2
# [1] = system: gram-negative and gram-positive organisms; assay: In vivo activity against infections in mice; conditions: mouse
# Procedure: as §1
# [2] = system: Vibrio percolans ATCC 8461; assay: Disc-diffusion bioassay on ATCC 8461 plates; assay type: cell-based; conditions: crude sample (244 absorbance units at 298 nm); 1/2 inch disc, 0.1 ml of 1000 fold dilution; 25° C.
# Procedure: Assays of antibacterial activity are run according to the following disc-diffusion method using either Vibrio percolans ATCC 8461 or Staphylococcus aureus ATCC […] as tester organism. Plates containing Vibrio percolans ATCC 8461 are prepared as follows: A lyophilized culture of Vibrio percolans ATCC 8461 is suspended in 15 ml. of a sterilized medium containing 8 g./l. of Difco Nutrient Broth and 2 g./l. of yeast extract in distilled water (hereinafter designated NBYE). The culture is incubated overnight on a rotary shaker at 28° C. This culture is used to inoculate the surface of […] containing 1.5% agar in NBYE, and the inoculated […] incubated overnight at 28° C. and then stored in a refrigerator. The refrigerated […] prepared from a single lyophilized culture are used for up to four weeks from their preparation, as follows: A loop of inoculum from the slant is dispersed in 50 ml. of NBYE contained in a 250 ml. Erlenmeyer flask. […] The plates are incubated at 37° C. overnight, and the zone of inhibition is measured as mm. diameter. The zone of inhibition measured in mm. determines relative potencies. […] The solution contains 244 absorbance units at 298 nm and a 1/2 inch assay disc containing 0.1 ml. of a 1000 fold dilution, produces a 23 mm. zone of inhibition when incubated on ATCC 8461 plates at 25° C.
# [3] = pKa from the λ max dependence on pH; assay type: physicochemical; conditions: read-out: pKa for a COOH group
# [4] = system: Staphylococcus aureus ATCC 6538P; assay: Disc-diffusion potency in units/mg relative to cephalothin; assay type: cell-based
# Procedure: Plates containing Staphylococcus aureus ATCC 6538P are prepared as follows:
# An overnight growth of the assay organism, Staphylococcus aureus ATCC 6538P, in nutrient broth plus 0.2% yeast extract is diluted with nutrient broth plus 0.2% yeast extract to a suspension having 55% transmittance at a wavelength of 660 nm. This suspension is added to Difco nutrient agar supplemented with 2.0 g./l. Difco yeast extract at 47° C. to 48° C., to make a composition containing 33.2 ml. of the suspension per liter of agar. Five ml. of this suspension is poured into petri dishes of 85 mm. diameter, and these plates are chilled and held at 4° C. until used (5 day maximum).
# Samples of antibiotic to be assayed are diluted to an appropriate concentration in phosphate buffer at pH 7. Filter paper discs, 1/4 or 1/2 inch diameter, are dipped into the test solution and placed on the surface of the assay plate. The plates are incubated at 37° C. overnight, and the zone of inhibition is measured as mm. diameter. The zone of inhibition measured in mm. determines relative potencies.
# The 48 l. concentrate is adjusted to pH 7.3 and adsorbed on 76 l. of Dowex 1×2, 50 to 100 mesh, chloride cycle resin at 7.6 l./min. The resin is eluted with deionized water at the same rate. Four fractions are collected, two of 48 l., one of 70 l. and one of 48 l. The fractions are adjusted to pH 7 as collected. Assays indicate that 68% of the starting bioactivity is in the 70 l. fraction. This fraction is concentrated to 18 l. at pH 7.0 and filtered using a 0.45 micron Millipore Filter.
# [5] = MB2921, resistance P (penicillins)
# [6] = MB2922, resistance P (penicillins)
# [7] = 9.85 μg/disc, prepared by fermenting Streptomyces cattleya
# [8] = MB2646, resistance P,C (penicillins, cephalosporins)
# [9] = MB2824, resistance P,C (penicillins, cephalosporins)
# [10] = MB2835, resistance P,C (penicillins, cephalosporins), zone hazy
# [11] = MB3286, resistance P,C (penicillins, cephalosporins)
# [12] = MB2482, resistance P (penicillins)
# [13] = MB2964, resistance P,C (penicillins, cephalosporins)
smiles,measurement,setting,value
"CC(=O)NCCSC1=C(C(=O)O)N2C(=O)C(C(C)O)C2C1 (centres unmarked) [N-Acetyl Thienamycin, N-acetyl thienamycin]",ED50,Staph aureus 2949,0.05 mg/kg
same,zone of inhibition at 10.35 µg/disc,Klebsiella pneumoniae; [5],28.5 mm
same,zone of inhibition at 10.35 µg/disc,Klebsiella pneumoniae; [6],30 mm
same,zone of inhibition at 9.85 µg/disc,Klebsiella pneumoniae; [5],28 mm
same,zone of inhibition at 9.85 µg/disc,Klebsiella pneumoniae; [6],27 mm
same,zone of inhibition at 9.85 µg/disc,Proteus morganii; [7],25.5 mm
same,zone of inhibition at 10.35 µg/disc,"Proteus morganii; Morganella morganii, 10.35 μg/disc, prepared by acetylating thienamycin",25 mm
same,diameter of the zone of inhibition,Staphylococcus aureus; [7],37 millimeters
same,diameter of the zone of inhibition,"Staphylococcus aureus; 10.35 μg/disc, prepared by acetylating thienamycin",37 millimeters
same,zone of inhibition at 9.85 µg/disc,"Staphylococcus aureus; MB2985, 9.85 μg/disc, prepared by fermenting Streptomyces cattleya, read-out: diameter of the zone of inhibition",37 mm
same,zone of inhibition at 10.35 µg/disc,"Staphylococcus aureus; Staphylococcus aureus, MB2985, 10.35 μg/disc, prepared by acetylating thienamycin, read-out: diameter of the zone of inhibition",37 mm
same,zone of inhibition at 10.35 µg/disc,Enterobacter cloacae; [8],27 mm
same,zone of inhibition at 10.35 µg/disc,Enterobacter cloacae; MB2647,29 mm
same,zone of inhibition at 9.85 µg/disc,Enterobacter cloacae; [8],26.5 mm
same,zone of inhibition at 9.85 µg/disc,Enterobacter cloacae; MB2647,29 mm
same,zone of inhibition at 9.85 µg/disc,Serratia; [7],27 mm
same,zone of inhibition at 10.35 µg/disc,"Serratia; Serratia, 10.35 μg/disc, prepared by acetylating thienamycin",27 mm
same,zone of inhibition at 10.35 µg/disc,"Bacillus subtilis; Bacillus subtilis, ATCC6633, 10.35 μg/disc, prepared by acetylating thienamycin",44.5 mm
same,zone of inhibition at 9.85 µg/disc,Bacillus subtilis; [7],43 mm
same,zone of inhibition at 9.85 µg/disc,Pseudomonas aeruginosa; [9],23 mm
same,zone of inhibition at 9.85 µg/disc,Pseudomonas aeruginosa; [10],11 mm
same,zone of inhibition at 9.85 µg/disc,Pseudomonas aeruginosa; [11],0 mm
same,zone of inhibition at 10.35 µg/disc,Pseudomonas aeruginosa; [9],24 mm
same,zone of inhibition at 10.35 µg/disc,Pseudomonas aeruginosa; [10],11 mm
same,zone of inhibition at 10.35 µg/disc,Pseudomonas aeruginosa; [11],0 mm
same,zone of inhibition at 9.85 µg/disc,Proteus mirabilis; [7],25 mm
same,zone of inhibition at 10.35 µg/disc,"Proteus mirabilis; Proteus mirabilis, 10.35 μg/disc, prepared by acetylating thienamycin",26 mm
same,zone of inhibition at 10.35 µg/disc,Escherichia coli; [12],28 mm
same,zone of inhibition at 10.35 µg/disc,Escherichia coli; MB2884,31.5 mm
same,zone of inhibition at 10.35 µg/disc,Escherichia coli; [13],29.5 mm
same,zone of inhibition at 9.85 µg/disc,Escherichia coli; [12],28 mm
same,zone of inhibition at 9.85 µg/disc,Escherichia coli; MB2884,31.5 mm
same,zone of inhibition at 9.85 µg/disc,Escherichia coli; [13],28.5 mm
same,in vivo activity,[1],exhibits in vivo activity against gram-negative and gram-positive organisms
same,zone of inhibition,[2],23 mm
same,pKa,[3],3.3 ± 0.1
C[C@@H](O)[C@H]1C(=O)N2C(C(=O)O)=C(SCCN)C[C@H]12 [thienamycin],calculated potency,[4]; 23.6 mg. after second XAD-2 column,"30,140 units/mg"
same,average potency,"[4]; 90 mg. after Bio-Gel P-2, fractions 75 through 80","10,000 units/mg"
same,potency,"[4]; 100.5 mg. after Bio-Gel P-2, fractions 75 through 79","8,320 units/mg"
same,calculated potency,"[4]; after second XAD-2 column, 3.1 fold purification","31,000 units/mg"
same,potency,[4]; freeze-dried product after Dowex 1×2,310 units/mg
